One assay addresses D(1A) dopamine receptor (Sus scrofa, UniProt P50130). The assay is described as follows: Displacement of [3H]SCH23390 from dopamine D1 receptor in pig striatal membranes. In kind it is cell membranes, Striatum, Membrane. In general terms: Displacement assays read how much labelled ligand stays bound in the presence of the test substance.
Assay [1] deals with T1, D(2) dopamine receptor (Homo sapiens, UniProt P14416). The assay is described as follows: Displacement of [3H]Spiperone from human dopamine D2 long receptor expressed in CHO cells. In kind it is cell-based.
The target in assay [2] is T1, D(2) dopamine receptor. Nature of the assay: Displacement of [3H]Spiperone from human dopamine D2 short receptor expressed in CHO cells. In kind it is cell-based.
For assay [3], the target named is T2, D(3) dopamine receptor (Homo sapiens, UniProt P35462). Nature of the assay: Displacement of [3H]Spiperone from human dopamine D3 receptor expressed in CHO cells. In kind it is cell-based.
The next assay concerns the target T3, D(4) dopamine receptor (Homo sapiens, UniProt P21917).
T3 sequence (P21917 whole entry): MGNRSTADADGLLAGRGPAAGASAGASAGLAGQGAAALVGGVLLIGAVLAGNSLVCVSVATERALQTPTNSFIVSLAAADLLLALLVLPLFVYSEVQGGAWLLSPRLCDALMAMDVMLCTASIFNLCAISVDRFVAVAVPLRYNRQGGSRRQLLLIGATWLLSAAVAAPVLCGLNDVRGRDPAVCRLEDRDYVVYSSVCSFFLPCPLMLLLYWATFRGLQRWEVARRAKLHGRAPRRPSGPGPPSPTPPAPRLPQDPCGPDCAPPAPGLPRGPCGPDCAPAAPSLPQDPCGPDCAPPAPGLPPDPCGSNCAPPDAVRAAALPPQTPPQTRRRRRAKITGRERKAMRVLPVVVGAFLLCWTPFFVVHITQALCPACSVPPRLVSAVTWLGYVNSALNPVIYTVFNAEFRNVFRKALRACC
Nature of the assay: Displacement of [3H]Spiperone from human dopamine D4.4 receptor expressed in CHO cells. In kind it is cell-based.

Assay [4] concerns the target 5-hydroxytryptamine receptor 2A (Sus scrofa, UniProt P50129). Nature of the assay: Displacement of [3H]Ketanserin from 5-HT2 receptor in pig cortex membranes. In kind it is cell membranes.
Assay [5] in a line: Displacement of [3H]Prazosin from adrenergic alpha1 receptor in pig cerebral cortex homogenates. In kind it is tissue-based, Sus scrofa.
The target of assay [6] is T2, D(3) dopamine receptor. Nature of the assay: Agonist activity at human dopamine D3 receptor expressed in dhfr deficient CHO cells assessed as [3H]thymidine incorporation. In kind it is functional, cell-based. In general terms: Dividing cells build labelled thymidine or BrdU into new DNA.
For assay [7], the species on record is Homo sapiens. Nature of the assay: Selectivity ratio of Ki for wild type human dopamine D3 receptor to Ki for human dopamine D3 receptor V2.61F mutant.
For assay [8], the species on record is Homo sapiens. The assay is described as follows: Selectivity ratio of Ki for wild type human dopamine D3 receptor to Ki for human dopamine D3 receptor F6.52W mutant.

Activity calls are given as the source filed them. No cut-off for these calls is given here.

Sequence of 5-hydroxytryptamine receptor 2A (P50129 whole entry): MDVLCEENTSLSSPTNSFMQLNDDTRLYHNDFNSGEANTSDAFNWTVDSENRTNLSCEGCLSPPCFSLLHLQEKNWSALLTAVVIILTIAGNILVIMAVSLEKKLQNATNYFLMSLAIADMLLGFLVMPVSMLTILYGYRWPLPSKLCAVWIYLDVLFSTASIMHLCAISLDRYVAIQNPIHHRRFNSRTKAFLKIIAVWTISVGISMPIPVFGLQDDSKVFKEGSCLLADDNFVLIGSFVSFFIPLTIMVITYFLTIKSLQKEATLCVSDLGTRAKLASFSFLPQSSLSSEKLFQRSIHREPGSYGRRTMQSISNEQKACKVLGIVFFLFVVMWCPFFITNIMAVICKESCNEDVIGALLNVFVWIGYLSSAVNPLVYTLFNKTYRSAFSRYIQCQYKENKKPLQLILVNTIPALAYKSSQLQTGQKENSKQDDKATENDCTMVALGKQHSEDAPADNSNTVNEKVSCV
T2 sequence (P35462 whole entry): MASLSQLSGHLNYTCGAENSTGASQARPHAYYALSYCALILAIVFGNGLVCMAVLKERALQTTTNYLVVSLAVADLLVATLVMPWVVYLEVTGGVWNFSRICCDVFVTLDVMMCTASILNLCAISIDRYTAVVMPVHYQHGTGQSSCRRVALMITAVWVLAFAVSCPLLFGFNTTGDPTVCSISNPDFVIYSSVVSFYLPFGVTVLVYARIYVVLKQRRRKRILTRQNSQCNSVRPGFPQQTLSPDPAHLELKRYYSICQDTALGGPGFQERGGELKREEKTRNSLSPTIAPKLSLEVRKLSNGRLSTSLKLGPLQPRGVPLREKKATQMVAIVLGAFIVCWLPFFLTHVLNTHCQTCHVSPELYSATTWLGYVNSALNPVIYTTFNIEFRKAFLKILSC
Sequence of D(1A) dopamine receptor (P50130 whole entry): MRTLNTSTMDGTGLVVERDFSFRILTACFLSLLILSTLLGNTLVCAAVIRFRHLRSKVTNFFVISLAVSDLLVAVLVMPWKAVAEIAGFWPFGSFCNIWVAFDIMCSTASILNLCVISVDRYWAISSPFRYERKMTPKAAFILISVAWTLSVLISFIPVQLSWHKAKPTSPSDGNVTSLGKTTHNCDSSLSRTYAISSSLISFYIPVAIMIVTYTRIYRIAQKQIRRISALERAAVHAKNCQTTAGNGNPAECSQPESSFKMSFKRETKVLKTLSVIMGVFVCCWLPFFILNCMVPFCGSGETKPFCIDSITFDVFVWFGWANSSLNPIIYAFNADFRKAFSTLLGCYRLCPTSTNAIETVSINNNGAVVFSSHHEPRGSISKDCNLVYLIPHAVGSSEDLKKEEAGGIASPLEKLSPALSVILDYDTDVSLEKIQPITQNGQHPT
T1 sequence (P14416 whole entry): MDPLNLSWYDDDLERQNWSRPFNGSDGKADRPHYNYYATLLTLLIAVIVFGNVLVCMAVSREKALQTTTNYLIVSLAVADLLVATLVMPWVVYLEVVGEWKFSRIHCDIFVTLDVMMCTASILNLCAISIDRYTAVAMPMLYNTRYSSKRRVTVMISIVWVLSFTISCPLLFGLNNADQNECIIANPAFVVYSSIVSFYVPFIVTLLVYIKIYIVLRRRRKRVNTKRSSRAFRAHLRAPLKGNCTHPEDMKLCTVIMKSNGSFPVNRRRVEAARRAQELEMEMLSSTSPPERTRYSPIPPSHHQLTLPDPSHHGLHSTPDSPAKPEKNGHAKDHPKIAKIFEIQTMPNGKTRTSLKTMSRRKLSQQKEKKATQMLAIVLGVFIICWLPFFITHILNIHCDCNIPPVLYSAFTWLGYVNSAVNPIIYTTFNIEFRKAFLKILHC

`O=C(CCCN1CCC(O)(c2cc3ccc2CCc2ccc(cc2)CC3)CC1)c1ccc(F)cc1`: the Ki – broadly, a measure of affinity in units of concentration, obtained from inhibition or displacement – was 0.1 µM at D(1A) dopamine receptor; 0.0048 µM at D(2) dopamine receptor [1]; 0.0036 µM on D(2) dopamine receptor [2]; 0.053 µM on D(3) dopamine receptor [3]; 0.00072 µM on D(4) dopamine receptor; 0.019 µM in [4]. This compound showed a Ki in assay [5] of 0.0029 µM.

Turning to `O=C(NCCCCN1CCN(c2cc3ccc2CCc2ccc(cc2)CC3)CC1)c1cc2ccccc2s1`, the Ki on D(1A) dopamine receptor was 4 µM; at D(2) dopamine receptor [1], 0.083 µM; at D(2) dopamine receptor [2], 0.15 µM; at D(3) dopamine receptor [3], 0.0016 µM; at D(4) dopamine receptor, 0.88 µM; in [4] it was 1 µM. In assay [5], this compound came in with a Ki of 0.49 µM. Also, the outcome on D(3) dopamine receptor [6] was inactive. For the same compound, the Ratio Ki in the assay listed under Homo sapiens [7] was found to be 24; in the assay filed under Homo sapiens [8], 2.4.

For `Cc1ccc(C)c(N2CCN(CCCCNC(=O)c3cc4ccccc4s3)CC2)c1`, the Ki at D(1A) dopamine receptor turned out to be 2.4 µM; on D(2) dopamine receptor [1], 0.084 µM; on D(2) dopamine receptor [2] it was 0.065 µM; on D(3) dopamine receptor [3] it was 0.0025 µM; at D(4) dopamine receptor, 0.3 µM; in [4], 1.5 µM. Also, the Ki in assay [5] is 0.02 µM. Further, the Ratio Ki in the assay filed under Homo sapiens [7] turned out to be 40; in the assay filed under Homo sapiens [8], 38.

In the case of `Cc1ccc(C)c(C(=O)CCCN2CCC(O)(c3cc(C)ccc3C)CC2)c1`, the Ki was 0.59 µM at D(1A) dopamine receptor; 0.28 µM at D(3) dopamine receptor [3]; 0.03 µM at D(4) dopamine receptor; 1.7 µM in assay [4]; 0.011 µM in assay [5].

As to `Cc1ccc(C)c(N2CCN(CCCC(=O)c3ccc(F)cc3)CC2)c1`, the inhibition constant Ki at D(1A) dopamine receptor came to 0.21 µM; on D(2) dopamine receptor [1] it was 0.013 µM; at D(2) dopamine receptor [2] it was 0.016 µM; at D(3) dopamine receptor [3], 0.076 µM; at D(4) dopamine receptor, 0.017 µM; in assay [4], 0.85 µM. This compound also had a Ki in assay [5] of 0.0032 µM.

As to `O=C(CCCN1CCC(O)(c2cc3ccc2CCc2ccc(cc2)CC3)CC1)c1cc2ccc1CCc1ccc(cc1)CC2`, the Ki was 4.9 µM on D(1A) dopamine receptor; 0.038 µM at D(3) dopamine receptor [3]; 0.03 µM at D(4) dopamine receptor; 1.2 µM in assay [4]; 2.8 µM in assay [5].

As for `COc1ccccc1N1CCN(CCCCNC(=O)c2cc3ccc2CCc2ccc(cc2)CC3)CC1`, the Ki on D(1A) dopamine receptor is 0.68 µM; on D(2) dopamine receptor [1], 0.024 µM; on D(2) dopamine receptor [2] it was 0.018 µM; at D(3) dopamine receptor [3] it was 0.00049 µM; on D(4) dopamine receptor it was 0.011 µM; in assay [4], 2.2 µM. The affinity in [5], expressed as Ki, was 0.0042 µM.

Regarding `O=C(CCCN1CCC(O)(c2ccc(Cl)cc2)CC1)c1cc2ccc1CCc1ccc(cc1)CC2`, the inhibitory constant (Ki) turned out to be 9.8 µM at D(1A) dopamine receptor, 0.017 µM at D(3) dopamine receptor [3], 0.039 µM at D(4) dopamine receptor and 2.4 µM in [4].

Take `O=C(CCCN1CCN(c2ccc(Cl)cc2)CC1)c1cc2ccc1CCc1ccc(cc1)CC2`: the Ki on D(1A) dopamine receptor came to 5.4 µM; on D(2) dopamine receptor [1], 0.62 µM; on D(2) dopamine receptor [2], 0.44 µM; on D(3) dopamine receptor [3], 0.41 µM; at D(4) dopamine receptor, 0.12 µM; in [4] it was 1.7 µM. The Ki in [5] was determined as 0.18 µM.

For the compound `O=C(CCCN1CCN(c2ccc(Cl)cc2)CC1)c1ccc(F)cc1`, the Ki turned out to be 0.34 µM on D(1A) dopamine receptor; 0.063 µM on D(2) dopamine receptor [1]; 0.061 µM at D(2) dopamine receptor [2]; 0.0076 µM at D(4) dopamine receptor; 0.44 µM in [4]; 0.013 µM in [5].

Regarding `Cc1ccc(C)c(C(=O)NCCCCN2CCN(c3cc(C)ccc3C)CC2)c1`, the Ki at D(1A) dopamine receptor was determined as 3.2 µM; at D(2) dopamine receptor [1], 0.099 µM; at D(2) dopamine receptor [2], 0.086 µM; at D(3) dopamine receptor [3] it was 0.028 µM; at D(4) dopamine receptor it was 0.22 µM; in assay [4] it was 3.6 µM. Moreover, the Ki in assay [5] came out at 0.029 µM.

In turn, `O=C(CCCN1CCC(O)(c2ccc(Cl)cc2)CC1)c1ccc(F)cc1` [HALOPERIDOL] returned a Ki in assay [5] of 0.0068 µM.

Regarding `COc1ccccc1N1CCN(CCCCNC(=O)c2cc(C)ccc2C)CC1`, the Ki at D(1A) dopamine receptor was determined as 2.1 µM; at D(2) dopamine receptor [1], 0.022 µM; on D(2) dopamine receptor [2] it was 0.017 µM; at D(3) dopamine receptor [3], 0.0047 µM; at D(4) dopamine receptor it was 0.023 µM; in assay [4], 1.5 µM. In addition, in [5], the Ki was 0.014 µM.

Consider `O=C(NCCCCN1CCN(c2cc3ccc2CCc2ccc(cc2)CC3)CC1)c1cc2ccc1CCc1ccc(cc1)CC2`, for which the Ki on D(1A) dopamine receptor was determined as 7.8 µM; at D(2) dopamine receptor [1] it was 0.032 µM; at D(2) dopamine receptor [2], 0.048 µM; at D(3) dopamine receptor [3], 0.004 µM; at D(4) dopamine receptor, 0.17 µM; in assay [4], 8.2 µM. Besides, the affinity in [5] corresponds to a Ki of 0.84 µM.

For `Cc1ccc(C)c(C2(O)CCN(CCCC(=O)c3ccc(F)cc3)CC2)c1`, the Ki at D(1A) dopamine receptor was determined as 0.019 µM; at D(2) dopamine receptor [1] it was 0.0034 µM; on D(2) dopamine receptor [2], 0.0065 µM; on D(3) dopamine receptor [3] it was 0.027 µM; at D(4) dopamine receptor, 0.02 µM; in assay [4] it was 0.11 µM. In [5], the Ki was 0.0013 µM.

As for `Cc1ccc(C)c(C(=O)CCCN2CCC(O)(c3ccc(Cl)cc3)CC2)c1`, the inhibitory constant (Ki) on D(1A) dopamine receptor was 3.8 µM; on D(2) dopamine receptor [1] it was 0.015 µM; at D(2) dopamine receptor [2] it was 0.043 µM; on D(3) dopamine receptor [3] it was 0.073 µM; at D(4) dopamine receptor, 0.061 µM; in assay [4], 0.69 µM. Moreover, in [5], the Ki stood at 0.035 µM.

On to `COc1ccccc1N1CCN(CCCCNC(=O)c2cc3ccccc3s2)CC1`, for which the Ki in [4] came to 0.35 µM; in assay [5] it was 0.014 µM.

For the compound `O=C(CCCN1CCN(c2cc3ccc2CCc2ccc(cc2)CC3)CC1)c1ccc(F)cc1`, the Ki on D(1A) dopamine receptor worked out at 0.59 µM; at D(2) dopamine receptor [1], 0.019 µM; at D(2) dopamine receptor [2], 0.022 µM; on D(3) dopamine receptor [3], 0.0099 µM; on D(4) dopamine receptor, 0.12 µM; in assay [4], 0.45 µM. This compound also showed a Ki in assay [5] of 0.071 µM.

For the origin of these results see ChEMBL document CHEMBL1255217, “Bioisosteric replacement leading to biologically active [2.2]paracyclophanes with altered binding profiles for aminergic G-protein-coupled receptors” (J Med Chem, 2010).
